Measurements published in ChEMBL document CHEMBL3112480, “γ-Alkylidene-γ-lactones and isobutylpyrrol-2(5H)-ones analogues to rubrolides as inhibitors of biofilm formation by gram-positive and gram-negative bacteria” (Bioorg Med Chem Lett, 2014).
Values after ≈ are worked out from the molar mass of the structure shown.

Key:
[1] = system: Staphylococcus aureus; assay: Antibacterial activity against Staphylococcus aureus ATCC 25923 assessed as effect on planktonic growth at 43.8 ug/ml after 20 hrs relative to control; assay type: functional
[2] = system: Staphylococcus aureus; assay: Antibacterial activity against Staphylococcus aureus ATCC 25923 assessed as effect on planktonic growth at 2.73 ug/ml after 20 hrs relative to control; assay type: functional
[3] = system: Staphylococcus epidermidis; assay: Antibacterial activity against Staphylococcus epidermidis ATCC 35547 assessed as inhibition of biofilm formation after 20 hrs by crystal-violet staining method; assay type: functional, organism-based; settings: for IC50: ATCC 35547, 20 h
[4] = system: Staphylococcus aureus; assay: Antibacterial activity against Staphylococcus aureus ATCC 25923 assessed as effect on planktonic growth at 87.5 ug/ml after 20 hrs relative to control; assay type: functional
[5] = system: Staphylococcus epidermidis; assay: Antibacterial activity against Staphylococcus epidermidis ATCC 35547 assessed as effect on planktonic growth at 0.17 ug/ml after 20 hrs relative to control; assay type: functional
[6] = system: Streptococcus mutans; assay: Antibacterial activity against Streptococcus mutans ATCC 25175 assessed as effect on planktonic growth at 21.9 ug/ml after 20 hrs relative to control; assay type: functional
[7] = system: Streptococcus mutans; assay: Antibacterial activity against Streptococcus mutans ATCC 25175 assessed as effect on planktonic growth at 0.34 ug/ml after 20 hrs relative to control; assay type: functional
[8] = system: Pseudomonas aeruginosa; assay: Antibacterial activity against Pseudomonas aeruginosa ATCC 27853 assessed as effect on planktonic growth at 5.5 ug/ml after 20 hrs relative to control; assay type: functional
[9] = system: Staphylococcus epidermidis; assay: Antibacterial activity against Staphylococcus epidermidis ATCC 35547 assessed as effect on planktonic growth at 87.5 ug/ml after 20 hrs relative to control; assay type: functional
[10] = system: Staphylococcus epidermidis; assay: Antibacterial activity against Staphylococcus epidermidis ATCC 35547 assessed as effect on planktonic growth at 43.8 ug/ml after 20 hrs relative to control; assay type: functional
[11] = system: Pseudomonas aeruginosa; assay: Antibacterial activity against Pseudomonas aeruginosa ATCC 27853 assessed as effect on planktonic growth at 87.5 ug/ml after 20 hrs relative to control; assay type: functional
[12] = system: Pseudomonas aeruginosa; assay: Antibacterial activity against Pseudomonas aeruginosa ATCC 27853 assessed as effect on planktonic growth at 0.17 ug/ml after 20 hrs relative to control; assay type: functional
[13] = system: Staphylococcus aureus; assay: Antibacterial activity against Staphylococcus aureus ATCC 25923 assessed as effect on planktonic growth at 10.9 ug/ml after 20 hrs relative to control; assay type: functional
[14] = system: Pseudomonas aeruginosa; assay: Antibacterial activity against Pseudomonas aeruginosa ATCC 27853 assessed as effect on planktonic growth at 21.9 ug/ml after 20 hrs relative to control; assay type: functional
[15] = system: Streptococcus mutans; assay: Antibacterial activity against Streptococcus mutans ATCC 25175 assessed as effect on planktonic growth at 0.68 ug/ml after 20 hrs relative to control; assay type: functional
[16] = system: Streptococcus mutans; assay: Antibacterial activity against Streptococcus mutans ATCC 25175 assessed as effect on planktonic growth at 1.37 ug/ml after 20 hrs relative to control; assay type: functional
[17] = system: Streptococcus mutans; assay: Antibacterial activity against Streptococcus mutans ATCC 25175 assessed as effect on planktonic growth at 0.17 ug/ml after 20 hrs relative to control; assay type: functional
[18] = system: Streptococcus mutans; assay: Antibacterial activity against Streptococcus mutans ATCC 25175 assessed as effect on planktonic growth at 2.73 ug/ml after 20 hrs relative to control; assay type: functional
[19] = system: Staphylococcus epidermidis; assay: Antibacterial activity against Staphylococcus epidermidis ATCC 35547 assessed as effect on planktonic growth at 10.9 ug/ml after 20 hrs relative to control; assay type: functional
[20] = system: Pseudomonas aeruginosa; assay: Antibacterial activity against Pseudomonas aeruginosa ATCC 27853 assessed as effect on planktonic growth at 43.8 ug/ml after 20 hrs relative to control; assay type: functional
[21] = system: Streptococcus mutans; assay: Antibacterial activity against Streptococcus mutans ATCC 25175 assessed as effect on planktonic growth at 43.8 ug/ml after 20 hrs relative to control; assay type: functional
[22] = system: Staphylococcus aureus; assay: Antibacterial activity against Staphylococcus aureus ATCC 25923 assessed as effect on planktonic growth at 21.9 ug/ml after 20 hrs relative to control; assay type: functional
[23] = system: Staphylococcus epidermidis; assay: Antibacterial activity against Staphylococcus epidermidis ATCC 35547 assessed as effect on planktonic growth at 0.34 ug/ml after 20 hrs relative to control; assay type: functional
[24] = system: Staphylococcus aureus; assay: Antibacterial activity against Staphylococcus aureus ATCC 25923 assessed as effect on planktonic growth at 5.5 ug/ml after 20 hrs relative to control; assay type: functional
[25] = system: Staphylococcus epidermidis; assay: Antibacterial activity against Staphylococcus epidermidis ATCC 35547 assessed as effect on planktonic growth at 2.73 ug/ml after 20 hrs relative to control; assay type: functional
[26] = system: Staphylococcus epidermidis; assay: Antibacterial activity against Staphylococcus epidermidis ATCC 35547 assessed as effect on planktonic growth at 1.37 ug/ml after 20 hrs relative to control; assay type: functional
[27] = system: Staphylococcus epidermidis; assay: Antibacterial activity against Staphylococcus epidermidis ATCC 35547 assessed as effect on planktonic growth at 5.5 ug/ml after 20 hrs relative to control; assay type: functional
[28] = system: Staphylococcus epidermidis; assay: Antibacterial activity against Staphylococcus epidermidis ATCC 35547 assessed as effect on planktonic growth at 21.9 ug/ml after 20 hrs relative to control; assay type: functional
[29] = system: Staphylococcus aureus; assay: Antibacterial activity against Staphylococcus aureus ATCC 25923 assessed as effect on planktonic growth at 1.37 ug/ml after 20 hrs relative to control; assay type: functional
[30] = system: Staphylococcus epidermidis; assay: Antibacterial activity against Staphylococcus epidermidis ATCC 35547 assessed as effect on planktonic growth at 0.68 ug/ml after 20 hrs relative to control; assay type: functional
[31] = system: Pseudomonas aeruginosa; assay: Antibacterial activity against Pseudomonas aeruginosa ATCC 27853 assessed as inhibition of biofilm formation after 20 hrs by crystal-violet staining method; assay type: functional, organism-based; settings: for IC50: ATCC 27853, 20 h
[32] = system: Streptococcus mutans; assay: Antibacterial activity against Streptococcus mutans ATCC 25175 assessed as effect on planktonic growth at 10.9 ug/ml after 20 hrs relative to control; assay type: functional
[33] = system: Streptococcus mutans; assay: Antibacterial activity against Streptococcus mutans ATCC 25175 assessed as effect on planktonic growth at 5.5 ug/ml after 20 hrs relative to control; assay type: functional
[34] = system: Staphylococcus aureus; assay: Antibacterial activity against Staphylococcus aureus ATCC 25923 assessed as effect on planktonic growth at 0.17 ug/ml after 20 hrs relative to control; assay type: functional
[35] = system: Pseudomonas aeruginosa; assay: Antibacterial activity against Pseudomonas aeruginosa ATCC 27853 assessed as effect on planktonic growth at 2.73 ug/ml after 20 hrs relative to control; assay type: functional
[36] = system: Pseudomonas aeruginosa; assay: Antibacterial activity against Pseudomonas aeruginosa ATCC 27853 assessed as effect on planktonic growth at 10.9 ug/ml after 20 hrs relative to control; assay type: functional
[37] = system: Staphylococcus aureus; assay: Antibacterial activity against Staphylococcus aureus ATCC 25923 assessed as effect on planktonic growth at 0.34 ug/ml after 20 hrs relative to control; assay type: functional
[38] = system: Streptococcus mutans; assay: Antibacterial activity against Streptococcus mutans ATCC 25175 assessed as effect on planktonic growth at 87.5 ug/ml after 20 hrs relative to control; assay type: functional
[39] = system: Staphylococcus aureus; assay: Antibacterial activity against Staphylococcus aureus ATCC 25923 assessed as effect on planktonic growth at 0.68 ug/ml after 20 hrs relative to control; assay type: functional
[40] = system: Pseudomonas aeruginosa; assay: Antibacterial activity against Pseudomonas aeruginosa ATCC 27853 assessed as effect on planktonic growth at 0.68 ug/ml after 20 hrs relative to control; assay type: functional
[41] = system: Pseudomonas aeruginosa; assay: Antibacterial activity against Pseudomonas aeruginosa ATCC 27853 assessed as effect on planktonic growth at 0.34 ug/ml after 20 hrs relative to control; assay type: functional
[42] = system: Pseudomonas aeruginosa; assay: Antibacterial activity against Pseudomonas aeruginosa ATCC 27853 assessed as effect on planktonic growth at 1.37 ug/ml after 20 hrs relative to control; assay type: functional

SMILES: COc1ccc(Br)cc1C1=C(Br)C(=O)N(CC(C)C)/C1=C\c1ccc(Br)cc1
- Activity [1]: 5.5%
- Activity [2]: -2.4%
- inhibition [3]: Dose-dependent effect
- IC50 [3]: 67.5 µg/mL (≈ 118 µM)
- Activity [4]: 6%
- Activity [5]: 3.3%
- Activity [6]: -14.6%
- Activity [7]: -0.3%
- Activity [8]: 0.6%
- Activity [9]: 88.4%
- Activity [10]: 78.7%
- Activity [11]: 12.6%
- Activity [12]: 4.1%
- Activity [13]: 1%
- Activity [14]: -1.3%
- Activity [15]: 5.8%
- Activity [16]: 8.3%
- Activity [17]: 6%
- Activity [18]: -5.3%
- Activity [19]: 12.3%
- Activity [20]: 3.4%
- Activity [21]: -31.4%
- Activity [22]: 0.8%
- Activity [23]: 14.1%
- Activity [24]: -2.1%
- Activity [25]: 11.2%
- Activity [26]: 5.7%
- Activity [27]: 0.9%
- Activity [28]: 32.6%
- Activity [29]: -0.5%
- Activity [30]: 10%
- inhibition [31]: Dose-dependent effect
- IC50 [31]: > 87.5 µg/mL
- Activity [32]: -5%
- Activity [33]: -3.3%
- Activity [34]: -3.9%
- Activity [35]: 0.8%
- Activity [36]: -2.6%
- Activity [37]: 0.3%
- Activity [38]: -15.8%
- Activity [39]: -0.5%
- Activity [40]: -0.2%
- Activity [41]: 0.3%
- Activity [42]: 1%

SMILES: COc1ccc(Br)cc1C1=C(Br)C(=O)O/C1=C\c1cccc(Cl)c1
- Activity [1]: 75.8%
- Activity [2]: 30.1%
- inhibition [3]: Dose-dependent effect
- IC50 [3]: 40 µg/mL (≈ 85 µM)
- Activity [4]: 121.6%
- Activity [5]: -1.7%
- Activity [6]: -5.8%
- Activity [7]: 7.6%
- Activity [8]: -19.8%
- Activity [9]: 28.4%
- Activity [10]: 20.6%
- Activity [11]: -7.3%
- Activity [12]: 1.4%
- Activity [13]: 43.6%
- Activity [14]: -15%
- Activity [15]: 8.4%
- Activity [16]: 8.9%
- Activity [17]: -1%
- Activity [18]: 16.2%
- Activity [19]: 8.6%
- Activity [20]: -9.5%
- Activity [21]: 0.5%
- Activity [22]: 43.1%
- Activity [23]: -6.1%
- Activity [24]: 36.6%
- Activity [25]: 0.1%
- Activity [26]: -2.4%
- Activity [27]: 1.6%
- Activity [28]: 8.8%
- Activity [29]: 27%
- Activity [30]: -1.6%
- inhibition [31]: Dose-dependent effect
- IC50 [31]: > 87.5 µg/mL
- Activity [32]: 13.4%
- Activity [33]: 12.4%
- Activity [34]: 13.8%
- Activity [35]: -21.1%
- Activity [36]: -16.9%
- Activity [37]: 14.5%
- Activity [38]: 14.9%
- Activity [39]: 20%
- Activity [40]: -3.1%
- Activity [41]: 0.3%
- Activity [42]: -13.2%
